From ChEMBL document CHEMBL1130147, “Dihydrobenzofuran analogues of hallucinogens. 4. Mescaline derivatives” (J Med Chem, 1997)
pEC50, pIC50, pKi: −log10 of the molar value.

How the values were obtained:
[1] = biological target: T1, 5-hydroxytryptamine receptor 2C (Rattus norvegicus, UniProt P08909); test: Effect on phosphoinositide hydrolysis in NIH 3T3 fibroblast 5-hydroxytryptamine 2C receptor; assay type: functional
T1 sequence (P08909 whole entry): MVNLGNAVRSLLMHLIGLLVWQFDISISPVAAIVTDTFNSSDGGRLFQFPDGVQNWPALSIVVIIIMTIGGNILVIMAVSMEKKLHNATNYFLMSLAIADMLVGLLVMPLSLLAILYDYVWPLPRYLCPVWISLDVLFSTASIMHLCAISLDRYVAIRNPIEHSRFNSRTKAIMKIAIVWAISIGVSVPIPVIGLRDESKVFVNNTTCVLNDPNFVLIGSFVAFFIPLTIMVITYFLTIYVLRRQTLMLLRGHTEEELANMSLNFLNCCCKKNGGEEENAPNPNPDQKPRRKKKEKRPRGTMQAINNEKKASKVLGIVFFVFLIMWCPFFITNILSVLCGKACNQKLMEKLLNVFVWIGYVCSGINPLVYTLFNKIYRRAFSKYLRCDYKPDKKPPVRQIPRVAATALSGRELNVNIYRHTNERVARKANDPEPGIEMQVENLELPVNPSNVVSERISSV

[2] = biological target: T2, 5-hydroxytryptamine receptor 2C (Homo sapiens, UniProt P28335); test: Antagonist activity at cloned human 5-hydroxytryptamine 2C receptor using [3H]mesulergine radioligand
T2 sequence (P28335 whole entry): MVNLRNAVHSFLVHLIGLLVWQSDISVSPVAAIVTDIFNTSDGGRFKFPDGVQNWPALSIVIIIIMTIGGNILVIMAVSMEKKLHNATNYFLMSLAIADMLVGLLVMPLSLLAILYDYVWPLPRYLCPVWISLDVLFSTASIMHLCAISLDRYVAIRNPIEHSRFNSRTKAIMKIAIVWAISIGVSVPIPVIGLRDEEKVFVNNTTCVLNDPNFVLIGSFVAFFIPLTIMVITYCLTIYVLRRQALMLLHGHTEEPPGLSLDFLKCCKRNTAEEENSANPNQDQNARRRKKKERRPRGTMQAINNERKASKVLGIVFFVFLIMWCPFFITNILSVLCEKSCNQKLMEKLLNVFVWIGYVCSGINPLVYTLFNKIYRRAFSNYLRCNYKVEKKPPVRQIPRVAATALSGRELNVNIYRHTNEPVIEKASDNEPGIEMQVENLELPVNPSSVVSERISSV

[3] = biological target: T2, 5-hydroxytryptamine receptor 2C; test: Agonist activity at cloned human 5-hydroxytryptamine 2C receptor using [125I]DOI radioligand; assay type: binding
[4] = biological target: T3, 5-hydroxytryptamine receptor 2B (Homo sapiens, UniProt P41595); test: Antagonist activity at cloned human 5-hydroxytryptamine 2B receptor using [3H]rauwolscine radioligand
T3 sequence (P41595 whole entry): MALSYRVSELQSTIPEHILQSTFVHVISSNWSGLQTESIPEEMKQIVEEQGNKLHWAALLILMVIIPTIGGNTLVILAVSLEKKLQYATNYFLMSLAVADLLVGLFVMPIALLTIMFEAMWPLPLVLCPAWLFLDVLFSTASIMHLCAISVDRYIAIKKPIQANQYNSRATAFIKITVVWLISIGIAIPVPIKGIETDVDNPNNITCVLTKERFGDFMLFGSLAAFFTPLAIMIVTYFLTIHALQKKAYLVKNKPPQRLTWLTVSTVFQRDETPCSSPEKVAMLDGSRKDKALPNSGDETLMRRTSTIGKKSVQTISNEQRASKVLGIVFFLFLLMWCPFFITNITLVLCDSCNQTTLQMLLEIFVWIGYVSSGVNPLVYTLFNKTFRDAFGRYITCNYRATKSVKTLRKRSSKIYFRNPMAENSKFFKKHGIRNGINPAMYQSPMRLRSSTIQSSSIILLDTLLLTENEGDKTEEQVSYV

[5] = biological target: T4, 5-hydroxytryptamine receptor 2A (Rattus norvegicus, UniProt P14842); test: Ability to displace [3H]ketanserin from rat cortical homogenate 5-hydroxytryptamine 2A receptor
T4 sequence (P14842 whole entry): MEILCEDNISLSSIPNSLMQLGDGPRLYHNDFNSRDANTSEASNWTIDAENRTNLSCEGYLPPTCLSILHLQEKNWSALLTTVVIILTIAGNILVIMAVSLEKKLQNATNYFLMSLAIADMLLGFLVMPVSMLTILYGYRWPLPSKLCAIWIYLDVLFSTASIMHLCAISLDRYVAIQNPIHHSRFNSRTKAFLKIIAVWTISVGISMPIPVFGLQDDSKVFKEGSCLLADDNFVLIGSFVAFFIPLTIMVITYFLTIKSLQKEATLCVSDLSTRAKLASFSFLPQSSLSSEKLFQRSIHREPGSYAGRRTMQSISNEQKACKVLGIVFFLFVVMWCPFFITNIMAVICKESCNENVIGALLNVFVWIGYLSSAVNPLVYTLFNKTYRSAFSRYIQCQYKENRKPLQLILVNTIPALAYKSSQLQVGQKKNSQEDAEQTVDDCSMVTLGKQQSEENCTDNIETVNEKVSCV

[6] = species: Rattus norvegicus; test: Effective dose showing 29% Drug Discrimination in LSD trained rats (number of animals tested = 8-12); assay type: functional
[7] = biological target: T5, 5-hydroxytryptamine receptor 1A (Rattus norvegicus, UniProt P19327); test: Ability to displace [3H]-8-OH-DPAT from rat hippocampal homogenate 5-hydroxytryptamine 1A receptor; assay type: tissue-based, Hippocampus
T5 sequence (P19327 whole entry): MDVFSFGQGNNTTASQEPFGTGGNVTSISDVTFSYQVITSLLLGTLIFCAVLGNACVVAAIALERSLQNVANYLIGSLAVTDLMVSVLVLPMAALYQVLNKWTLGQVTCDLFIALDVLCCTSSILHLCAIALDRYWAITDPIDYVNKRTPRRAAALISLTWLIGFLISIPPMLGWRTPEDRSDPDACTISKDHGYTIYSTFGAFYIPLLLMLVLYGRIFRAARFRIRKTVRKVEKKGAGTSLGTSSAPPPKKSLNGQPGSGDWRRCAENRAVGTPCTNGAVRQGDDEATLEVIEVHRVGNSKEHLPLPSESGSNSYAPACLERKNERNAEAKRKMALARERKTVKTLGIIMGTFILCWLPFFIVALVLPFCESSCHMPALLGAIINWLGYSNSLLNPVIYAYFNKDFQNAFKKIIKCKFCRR

[8] = biological target: T4, 5-hydroxytryptamine receptor 2A; test: Effect on phosphoinositide hydrolysis in NIH 3T3 fibroblast expressing 5-hydroxytryptamine 2A receptor; assay type: functional
[9] = species: Rattus norvegicus; test: Ability to inhibit accumulation [3H]5-HT in rat whole brain synaptosomes; assay type: functional
[10] = biological target: T3, 5-hydroxytryptamine receptor 2B; test: Agonist activity at cloned human 5-hydroxytryptamine 2B receptor using [3H]5-HT radioligand; assay type: binding
[11] = species: Rattus norvegicus; test: Ability to inhibit accumulation [3H]DA in rat whole brain synaptosomes; assay type: functional
[12] = biological target: T6, 5-hydroxytryptamine receptor 2A (Homo sapiens, UniProt P28223); test: Agonist activity at cloned human 5-hydroxytryptamine 2A receptor using [125I]DOI radioligand
T6 sequence (P28223 whole entry): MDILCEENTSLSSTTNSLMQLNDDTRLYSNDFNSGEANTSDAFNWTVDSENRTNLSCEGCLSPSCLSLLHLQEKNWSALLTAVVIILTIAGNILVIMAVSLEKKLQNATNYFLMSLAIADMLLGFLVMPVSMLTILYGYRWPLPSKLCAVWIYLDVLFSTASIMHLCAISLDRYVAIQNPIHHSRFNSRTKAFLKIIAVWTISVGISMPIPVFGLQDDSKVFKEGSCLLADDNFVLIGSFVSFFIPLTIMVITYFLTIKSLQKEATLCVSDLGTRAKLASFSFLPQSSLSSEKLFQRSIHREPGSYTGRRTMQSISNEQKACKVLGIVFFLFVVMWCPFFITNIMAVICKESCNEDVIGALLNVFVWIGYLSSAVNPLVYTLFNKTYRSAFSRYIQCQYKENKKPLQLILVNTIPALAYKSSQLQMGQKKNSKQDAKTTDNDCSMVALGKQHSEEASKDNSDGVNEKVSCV

[13] = biological target: T6, 5-hydroxytryptamine receptor 2A; test: Antagonist activity at cloned human 5-hydroxytryptamine 2A receptor using [3H]-Ketanserin radioligand
[14] = biological target: T3, 5-hydroxytryptamine receptor 2B; test: Antagonist activity at cloned human 5-hydroxytryptamine 2B receptor using [3H]- rauwolscine radioligand
[15] = biological target: T4, 5-hydroxytryptamine receptor 2A; test: Effect on phosphoinositide hydrolysis in NIH 3T3 fibroblast 5-hydroxytryptamine 2A receptor; assay type: functional
[16] = species: Rattus norvegicus; test: Effective dose showing 50% Drug Discrimination in LSD trained rats (number of animals tested = 8-12); assay type: functional
[17] = Partition coefficient (logP); assay type: physicochemical; settings: octanol/water

COc1cc(CCN)c2c(c1OC)OCC2 showed a pEC50 [1] of 5.70, a pKi [2] of 5.96 and a pKi [3] of 6.93. For the same molecule, the pKi [4] was 6.51, the pKi [5] was 5.60 and the ED50 [6] was 57.8 µmol/kg. The pKi [7] was 5.21, the pEC50 [8] was 5.52 and the pIC50 [9] was < 5.00. For the same molecule, the pKi [10] was 6.28 and the pIC50 [11] was < 5.00.
Molecule COc1c2c(c(CCN)c3c1OCC3)CCO2 has a pEC50 [1] of 6.00, a pKi [2] of 6.18 and a pKi [3] of 7.21. The ED50 [6] was 55.2 µmol/kg, the pIC50 [9] was < 5.00 and the pKi [12] was 6.47. It also gave a pKi [13] of 5.35, a pKi [14] of 6.69 and a pEC50 [15] of 5.70. For the same molecule, the pKi [10] was 6.52 and the pIC50 [11] was < 5.00.
For CCOc1c(OC)cc(CCN)cc1OC, the pEC50 [1] was 5.70, the ED50 [16] was 16.2 µmol/kg and the pKi [3] was 6.75. The pKi [5] was 5.68, the pKi [7] was 5.16 and the pIC50 [9] was < 5.00. The pKi [12] was 6.67, the pEC50 [15] was 5.40 and the pKi [10] was 6.26. For the same molecule, the pIC50 [11] was < 5.00.
In the case of COc1cc(CCN)cc(OC)c1OC [MESCALINE], the pEC50 [1] was 4.62, the ED50 [16] was 33.5 µmol/kg and the pKi [3] was 6.52. For the same molecule, the pKi [5] was 5.26, the pKi [7] was 5.16 and the pIC50 [9] was < 5.00. For the same molecule, the pKi [12] was 6.26, the logP [17] was 3.15 and the pEC50 [15] was 5.40. The pKi [10] was 6.10 and the pIC50 [11] was < 5.00.
